Data reported in publication PMC9501810, “Bitter Peptides YFYPEL, [sequence], and [sequence], Released during Gastric Digestion of Casein, Stimulate Mechanisms of Gastric Acid Secretion via Bitter Taste Receptors TAS2R16 and TAS2R38” (Journal of Agricultural and Food Chemistry, 2022).
Values joined by “and” are separate entries in the source; they are usually repeats but may differ in a detail not shown here. Identical values can stand only once.

Experiments:
Format in all cases: cell-based, human
Settings in all cases: VAPFPEVF 17.5 µM, YFYPEL 0.03 µM, YQEPVLGPVRGPFPIIV 0.4 µM, normalized to PPIA and GAPDH and untreated cells, mean, n = 3–5
TAS2R4 = experiment: RT-qPCR gene expression of TAS2R4 in HGT-1 cells
Method: (§1) For mRNA expression analysis, 800,000 cells were seeded in a T25 cell culture flask (25 cm^2) 1 day before the experiment. After incubation with 17.5 μM […], 0.03 μM YFYPEL, or 0.4 μM […] for 15, 30, 60, and 120 min, RNA was isolated using the peqGOLD RNA Kit (VWR Peqlab, USA) following the manufacturer’s protocol. Determination of RNA concentration (A260/A280 between 2.03 and 2.09) was performed on a NanoDrop One^c (Thermo Fisher Scientific Inc., USA). RNA integrity number (RIN 9.9–10.0, version 2.6, assay class Eukaryote Total RNA Nano) was analyzed using a 2100 Bioanalyzer (Agilent Technologies, USA). Removal of gDNA and synthesis of cDNA were performed using the iScript gDNA Clear cDNA Synthesis Kit (BioRad, Feldkirchen, Germany) following the manufacturer’s protocol. Real-time-qPCR (RT-qPCR) was performed with 50 ng cDNA amplified with SsoAdvanced Universal SYBR Green Supermix (Bio-Rad Laboratories, Inc., USA). The sequences of the forward and reverse primers of the 25 TAS2Rs were taken from Liszt et al.([13]) (Supporting Information Table-SI 3). Verified primers for the TAS1Rs (TAS1R1: qHsaCID0013443; TAS1R2: qHsaCID0016106; TAS1R3: qHsaCED0002321) and for MAPK1 (qHsaCEP0050000) were obtained from Bio-Rad Laboratories. PPIA[37] and GAPDH[38] were used as reference genes. The effects of the peptides on gene expression were analyzed in comparison to untreated control cells.

TAS2R9 = experiment: RT-qPCR gene expression of TAS2R9 in HGT-1 cells
Method: as §1

TAS2R45 = experiment: RT-qPCR gene expression of TAS2R45 in HGT-1 cells
Method: as §1

TAS2R10 = experiment: RT-qPCR gene expression of TAS2R10 in HGT-1 cells
Method: as §1

TAS2R1 = experiment: RT-qPCR gene expression of TAS2R1 in HGT-1 cells
Method: as §1

TAS2R14 = experiment: RT-qPCR gene expression of TAS2R14 in HGT-1 cells
Method: as §1

TAS2R38 = experiment: RT-qPCR gene expression of TAS2R38 in HGT-1 cells
Method: as §1, with “cells. […]” for “cells.”

TAS2R42 = experiment: RT-qPCR gene expression of TAS2R42 in HGT-1 cells
Method: as §1

TAS2R39 = experiment: RT-qPCR gene expression of TAS2R39 in HGT-1 cells
Method: as §1

## YQEPVLGPVRGPFPIIV [bitter casein peptide βA1/A2-CN193–209]
TAS2R4; incubation 15 min
  change in gene expression of TAS2R4: 0.79 fold change
TAS2R4; incubation 30 min
  change in gene expression of TAS2R4: 1.71 fold change
TAS2R4; incubation 60 min
  change in gene expression of TAS2R4: 1.60 fold change
TAS2R4; incubation 120 min
  change in gene expression of TAS2R4: 1.21 fold change
TAS2R9; incubation 15 min
  change in gene expression of TAS2R9: 0.43 fold change
TAS2R9; incubation 30 min
  change in gene expression of TAS2R9: 0.44 fold change
TAS2R9; incubation 60 min
  change in gene expression of TAS2R9: 1.91 fold change
TAS2R9; incubation 120 min
  change in gene expression of TAS2R9: 0.73 fold change
TAS2R45; incubation 15 min
  change in gene expression of TAS2R45: 0.63 fold change
TAS2R45; incubation 30 min
  change in gene expression of TAS2R45: 1.25 fold change
TAS2R45; incubation 60 min
  change in gene expression of TAS2R45: 1.06 fold change
TAS2R45; incubation 120 min
  change in gene expression of TAS2R45: 0.84 fold change
TAS2R10; incubation 15 min
  change in gene expression of TAS2R10: 0.52 fold change and 0.52 ± 0.06 fold change
TAS2R10; incubation 30 min
  change in gene expression of TAS2R10: 0.78 fold change
TAS2R10; incubation 60 min
  change in gene expression of TAS2R10: 0.90 fold change
TAS2R10; incubation 120 min
  change in gene expression of TAS2R10: 1.04 fold change
TAS2R1; incubation 15 min
  change in gene expression of TAS2R1: 0.33 fold change
TAS2R1; incubation 30 min
  change in gene expression of TAS2R1: 0.43 fold change
TAS2R1; incubation 60 min
  change in gene expression of TAS2R1: 1.00 fold change
TAS2R1; incubation 120 min
  change in gene expression of TAS2R1: 0.84 fold change
TAS2R14; incubation 15 min
  change in gene expression of TAS2R14: 0.85 fold change
TAS2R14; incubation 30 min
  change in gene expression of TAS2R14: 1.08 fold change
TAS2R14; incubation 60 min
  change in gene expression of TAS2R14: 1.03 fold change
TAS2R14; incubation 120 min
  change in gene expression of TAS2R14: 1.08 fold change
TAS2R38; incubation 15 min
  change in gene expression of TAS2R38: 2.01 fold change
TAS2R38; incubation 30 min
  change in gene expression of TAS2R38: 3.71 fold change
TAS2R38; incubation 60 min
  change in gene expression of TAS2R38: 2.05 fold change
TAS2R38; incubation 120 min
  change in gene expression of TAS2R38: 2.38 fold change
TAS2R42; incubation 15 min
  change in gene expression of TAS2R42: 0.62 fold change
TAS2R42; incubation 30 min
  change in gene expression of TAS2R42: 1.38 fold change
TAS2R42; incubation 60 min
  change in gene expression of TAS2R42: 1.18 fold change
TAS2R42; incubation 120 min
  change in gene expression of TAS2R42: 0.94 fold change
TAS2R39; incubation 15 min
  change in gene expression of TAS2R39: 0.53 fold change
TAS2R39; incubation 30 min
  change in gene expression of TAS2R39: 1.16 fold change
TAS2R39; incubation 60 min
  change in gene expression of TAS2R39: 0.73 fold change
TAS2R39; incubation 120 min
  change in gene expression of TAS2R39: 0.53 fold change
